Source: patent US5091397A (priority 1988, dated 1992)
Structures can show the parent of a compound that is named as a salt. Where two headings read alike, the source gives them in different places.

Key:
muscarinic receptors [1] = assay: Radio ligand binding: displacement of the muscarinic agonist 3H-Oxotremorine-M (3H-OXO-M) from cerebral cortex membranes; parameters: species or system Hooded Lister rats; conditions: displacement of muscarinic agonist 3H-OXO-M (2nM), rat cerebral cortex, 2mM magnesium chloride, 37° C., 30 min
muscarinic receptors [2] = type: binding, Hooded Lister rats; conditions: displacement of muscarinic antagonist 3H-QNB (0.27nM), rat cerebral cortex, 37° C., 30 min

Cc1noc(CC2CN3CCC2CC3)n1 (racemic) [Example E2, (±) 3-[(3-Methyl-1,2,4-oxadiazol-5-yl)methyl]-1-azabicyclo[2.2.2]octane hydrochloride salt]
IC50 (muscarinic receptors [1]): 1050 nM | IC50 (muscarinic receptors [2]): 13000 nM

c1coc(CC2CN3CCC2CC3)n1 (racemic) [Example E3, (±) 3-(1,3-Oxazol-2-yl)methyl]-1-azabicyclo[2.2.2]octane oxalate salt]
IC50 (muscarinic receptors [1]): 755 nM | IC50 (muscarinic receptors [2]): 7000 nM

Nc1noc(CC23CCCN(CC2)C3)n1 (racemic) [Example E4, (±) 5-[(3-Amino-1,2,4-oxadiazol-5-yl)methyl]-1-azabicyclo[3.2.1]octane]
IC50 (muscarinic receptors [1]): 580 nM | IC50 (muscarinic receptors [2]): 6700 nM

c1coc(CC23CCCN(CC2)C3)c1 (racemic) [Example E12, (±) 5-[(Fur-2-yl)methyl-1-azabicyclo[3.2.1]octane oxalate salt]
IC50 (muscarinic receptors [1]): 660 nM | IC50 (muscarinic receptors [2]): 4000 nM

c1csc(CC2CN3CCC2CC3)n1 (racemic) [Example E17, (±) 3-((1,3-Thiazol-2-yl)methyl)-1-azabicyclo[2.2.2]octane oxalate salt]
IC50 (muscarinic receptors [1]): 875 nM

Nc1noc(C[C@@H]2CN3CC[C@@H]2C3)n1 (relative stereo) [Example E1, (±) exo 3-[(3-Amino-1,2,4-oxadiazol-5-yl)methyl]-1-azabicyclo[2.2.1]heptane]
IC50 (muscarinic receptors [1]): 36.5 nM | IC50 (muscarinic receptors [2]): 7500 nM

Nc1noc(C[C@H]2CN3CC[C@@H]2C3)n1 (relative stereo) [Example E5, (±) endo 3-[(3-Amino-1,2,4-oxadiazol-5-yl)methyl]-1-azabicyclo[2.2.1]heptane]
IC50 (muscarinic receptors [1]): 32 nM | IC50 (muscarinic receptors [2]): 21000 nM

Cc1noc(C[C@H]2CN3CC[C@@H]2C3)n1 (relative stereo) [Example E6, (±) endo 3-(3-Methyl-1,2.4-oxadiazol-5-yl)methyl-1-azabicyclo[2.2.1]heptane oxalate salt]
IC50 (muscarinic receptors [1]): 150 nM | IC50 (muscarinic receptors [2]): 10200 nM

c1coc(C[C@H]2CN3CC[C@@H]2C3)n1 (relative stereo) [Example E7, (±) endo 3-(1,3-Oxazol-2-yl)methyl]-1-azabicyclo[2.2.1]heptane oxalate salt]
IC50 (muscarinic receptors [1]): 42 nM | IC50 (muscarinic receptors [2]): 8000 nM

c1ncc(C[C@H]2CN3CC[C@@H]2C3)o1 (relative stereo) [Example E8, (±) endo 3-(1,3-Oxazol-5-yl)methyl-1-azabicyclo[2.2.1]heptane hydrochloride salt]
IC50 (muscarinic receptors [1]): 625 nM | IC50 (muscarinic receptors [2]): 38000 nM

Nc1noc(C[C@@H]2C[C@@H]3CCN(C2)C3)n1 (relative stereo) [Example E9, (±) endo 3-[(3-Amino-1,2,4-oxadiazol-5-yl)methyl]-1-azabicyclo[3.2.1]octane]
IC50 (muscarinic receptors [1]): 925 nM | IC50 (muscarinic receptors [2]): 4600 nM

c1coc(C[C@@H]2CN3CC[C@@H]2C3)n1 (relative stereo) [Example E10, (±) exo 3-(1,3-Oxazo1-2-yl)methyl-1-azabicyclo [2.2.1]heptane oxalate salt]
IC50 (muscarinic receptors [1]): 38 nM | IC50 (muscarinic receptors [2]): 5600 nM

Cn1nnc(C[C@H]2CN3CC[C@@H]2C3)n1 (relative stereo) [Example E11, (±) endo 3-[(2-Methyltetrazol-5-yl)methyl]-1-azabicyclo[2.2.11]heptane oxalate salt]
IC50 (muscarinic receptors [1]): 340 nM | IC50 (muscarinic receptors [2]): 8000 nM

Cc1nc(C[C@H]2CN3CC[C@@H]2C3)no1 (relative stereo) [Example E15, (±) endo 3-[(5-Methyl-1,2,4-oxadiazol-3-yl)methyl-1-azabicyclo[2.2.11]heptane hydrochloride salt]
IC50 (muscarinic receptors [1]): 950 nM | IC50 (muscarinic receptors [2]): 30500 nM

Cc1nc(C[C@@H]2CN3CC[C@@H]2C3)no1 (relative stereo) [Example E16, (±) exo 3-[(5-Methyl-1,2,4-oxadiazol-3-yl)methyl)-1-azabicyclo[2.2.1]heptane hydrochloride salt]
IC50 (muscarinic receptors [1]): 1000 nM

Nc1noc(CC23CCN(CC2)C3)n1 [Example E13, 4-[(3-Amino-1,2,4-oxadiazol-5-yl)methyl]-1-azabicyclo[2.2.1]heptane]
IC50 (muscarinic receptors [1]): 118 nM | IC50 (muscarinic receptors [2]): 85000 nM

c1coc(CC23CCN(CC2)C3)n1 [Example E14, 4-[(1,3-Oxazol-2-yl)methyl]-1-azabicyclo[2.2.1]heptane oxalate salt]
IC50 (muscarinic receptors [1]): 410 nM | IC50 (muscarinic receptors [2]): 74000 nM
